Reference: patent publication US20250109139A1, “TRICYCLIC COMPOUND, AND PREPARATION METHOD THEREFOR AND USE THEREOF” (SHANGHAITECH UNIVERSITY, priority 2022, published 2025)
Read-outs that look alike come from different tables or passages of the source.

Columns and labels:
dopamine D2 receptors [1] = target: T1, dopamine D2 receptors (Homo sapiens (Human), UniProt P14416); assay: Dopamine D2 receptor β-arrestin2 BRET (recruitment); assay type: cell-based; details: for Emax: relative to endogenous ligand dopamine, read-out: β-arrestin2 BRET Emax % ± SEM
T1 sequence (P14416 whole entry): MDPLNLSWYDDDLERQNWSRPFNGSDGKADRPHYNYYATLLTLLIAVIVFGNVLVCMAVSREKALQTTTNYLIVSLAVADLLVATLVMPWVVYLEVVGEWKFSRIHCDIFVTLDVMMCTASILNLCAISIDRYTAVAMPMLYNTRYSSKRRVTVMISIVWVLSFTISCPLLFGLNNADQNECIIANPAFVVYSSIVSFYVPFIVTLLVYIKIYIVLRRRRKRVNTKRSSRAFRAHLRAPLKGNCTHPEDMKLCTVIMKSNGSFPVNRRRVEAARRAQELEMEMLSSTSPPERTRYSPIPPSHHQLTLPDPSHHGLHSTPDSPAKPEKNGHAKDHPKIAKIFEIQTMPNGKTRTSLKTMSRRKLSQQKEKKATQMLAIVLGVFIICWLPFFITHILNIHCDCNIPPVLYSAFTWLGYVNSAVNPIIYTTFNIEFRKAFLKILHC
Method: (§1) To examine the downstream G-protein signaling pathway mediated by dopamine D2 receptors, on the first day, a 6 cm culture dish was used for transfection with 1 μg of dopamine D2 receptors, 1 μg of Gαi1 containing C-terminal seaweed luciferase (Gαi1-Rluc), 1 μg of Gβ3, 1 μg of Gγ9 containing C-terminal green fluorescent protein (Gγ9-GFP) mixed with 16 μL of PEI. At the same time, in order to examine the downstream β-arrestin2 signaling pathway mediated by dopamine D2 receptors, on the first day, a 6 cm culture dish was used for transfection with […] of dopamine D2 receptors containing C-terminal seaweed luciferase (D2-Rluc), […] of G protein-coupled receptor kinase 2 (GRK2), […] of β-arrestin2 containing N-terminal green fluorescent protein (GFP2-ARRB2) mixed with 14 μL of PEI. The next day, the confluent cells of a 6 cm culture dish were digested and reseeded into a 96-well plate with 100 μL of culture medium added to each well. On the third day, the drugs were added for test. The 96-well plate was taken out from the cell incubator to decant the culture medium, 40 μL of the substrate coelenterazine 400a (final concentration of 5 μM) was added to each well, and then 20 μL of different drugs were added sequentially from left to right to ensure that the final concentration of the drug decreased gradually from bottom to top, with two replicates per treatment. Finally, the prepared samples were loaded on machine for test. The machine readout value reflected the recruitment of β-arrestin2 to the membrane or the dissociation of G protein trimer. The former indicated the degree of activation of the β-arrestin2 signaling pathway downstream of the dopamine D2 receptors, and the latter indicated the degree of activation of the G protein signaling pathway downstream of the dopamine D2 receptors.

dopamine D2 receptors [2] = target: T1, dopamine D2 receptors; assay: Dopamine D2 receptor Gαi1 BRET (G protein trimer dissociation); assay type: cell-based; details: for Emax: relative to endogenous ligand dopamine, read-out: Gαi1 BRET Emax % ± SEM
Method: as §1

dopamine D2 receptors [3] = target: T1, dopamine D2 receptors; assay: Dopamine D2 receptor radioligand competition binding assay ([3H]-Methylspiperone); details: [3H]-Methylspiperone 0.3 to 0.5 nM, 293T membranes
Method: The affinity of the compounds of the present disclosure for dopamine D2 receptors was determined by a radioligand competition binding assay.
In the first step, a cell membrane component containing specific dopamine D2 receptors was prepared. A 10 cm culture dish was used for transfection with […] of dopamine D2 receptors and 40 μL of polyethylenimine (PEI hereafter). […] A vacuum pump was used to suck off the culture medium, 3 mL of lysis buffer was added to each culture dish, and the cells were placed in a 4° C. cold room for 10 minutes. After the cells were detached, the cells were transferred to a 15 mL centrifuge tube and centrifuged at 1500 rpm for 5 minutes at 4° C., and the supernatant was discarded. The cell pellet was transferred to a tissue homogenizer, and 3 mL of lysis buffer was added and fully ground until the cells were broken. Then, cell suspension was equally aliquoted into several EP tubes, centrifuged at 12000 rpm for 5 minutes at 4° C., and the supernatant was discarded. The precipitate was the cell membrane component containing the dopamine D2 receptors.
First, a standard binding buffer was added to the cell membrane component containing the dopamine D2 receptors, and the cell membrane was disrupted and resuspended with an electric tissue homogenizer. 30 μL of membrane protein suspension was added to each well of a 96-well plate. Then, 30 μL of different drugs were added to the 96-well plate sequentially from bottom to top to ensure that the final drug concentrations were 10^−5 M, 10^−6 M, 10^−7 M, 10^−8 M, 10^−9 M, and 0 M, with two replicates per treatment. Next, 30 μL of [3H]-Methylspiperone was added to each well of the 96-well plate. The plate was incubated at room temperature in the dark for 2 hours. Detection was conducted. The machine readout value reflected the amount of [3H]-Methylspiperone bound on the membrane, and after further data processing, the affinity Ki values of different compounds for the dopamine D2 receptors were obtained.

[4] = unit printed only in Cariprazine cell, read-out: β-arrestin2 BRET EC50
[5] = unit printed only in Cariprazine cell, read-out: Gαi1 BRET EC50
[6] = read-out: Gαi1 BRET pEC50 ± SEM (converted)
[7] = read-out: Affinity pKi ± SEM (converted)

SMILES | Emax (dopamine D2 receptors [1]) | EC50 (dopamine D2 receptors [1]; [4]) | Emax (dopamine D2 receptors [2]) | EC50 (dopamine D2 receptors [2]; [5]) | EC50 (dopamine D2 receptors [2]; [6]) | β-arrestin2 BRET pEC50 ± SEM (dopamine D2 receptors [1]) | Gαi1 BRET pEC50 ± SEM (dopamine D2 receptors [2]) | Affinity pKi ± SEM (dopamine D2 receptors [3]) | Ki (dopamine D2 receptors [3]; read-out: Affinity Ki) | Ki (dopamine D2 receptors [3]; [7]) | EC50 (dopamine D2 receptors [1]; read-out: β-arrestin2 BRET pEC50 ± SEM (converted))
COc1cccc2c3c(oc12)CN(CCCCOc1ccc2ccc(=O)n(C)c2c1)CC3 [I-A4, 7-(4-(8-methoxy-3,4-dihydrobenzofuro[2,3-c]pyridin-2(1H)-yl)butoxy)-1-methylquinolin-2(1H)-one] | 65% | 81.2 nM | 55% | 709 nM |  | (7.17 ± 0.18) | (6.16 ± 0.06) |  |  |  | 
COc1cccc2c3c(oc12)CN(CCNC(=O)C1CCOCC1)CC3 [I-A14, N-(2-(8-methoxy-3,4-dihydrobenzofuro[2,3-c]pyridin-2(1H)-yl)ethyl)tetrahydro-2H-pyran-4-carboxamide] |  |  |  |  |  |  |  |  | 752 nM |  | 
CCOc1cccc2c3c([nH]c12)CN(CCCCOc1ccc2ccc(=O)[nH]c2c1)CC3 [I-B2, 7-(4-(8-ethoxy-1,3,4,9-tetrahydro-2H-pyrido[3,4-b]indol-2-yl)butoxy)quinolin-2(1H)-one] |  |  |  |  |  |  |  |  | 78.9 nM | 77.6 nM | 
CCOc1cccc2c3c([nH]c12)CN(CCCOc1ccc2ccc(=O)[nH]c2c1)CC3 [I-B4, 7-(3-(8-ethoxy-1,3,4,9-tetrahydro-2H-pyrido[3,4-b]indol-2-yl)propoxy)quinolin-2(1H)-one] |  |  |  |  |  |  |  | (6.13 ± 0.26) | 728 nM |  | 
CCOc1cccc2c3c([nH]c12)CN(CCCOc1ccc2c(c1)NC(=O)CC2)CC3 [I-B6, 7-(3-(8-ethoxy-1,3,4,9-tetrahydro-2H-pyrido[3,4-b]indol-2-yl)propoxy)-3,4-dihydroquinolin-2(1H)-one] |  |  |  |  |  |  |  | (6.58 ± 0.41) | 266 nM |  | 
COc1cccc2c3c([nH]c12)CN(CCC1CC(NC(=O)N(C)C)C1)CC3 (stereo not drawn) [I-B10, 3-(3-(2-(8-methoxy-1,3,4,9-tetrahydro-2H-pyrido[3,4-b]indol-2-yl)ethyl)cyclobutyl)-1,1-dimethylurea] |  |  |  |  |  |  |  | (7.63 ± 0.57) | 23.2 nM |  | 
CCOc1cccc2c1cc1n2CCN(CCCCOc2ccc3ccc(=O)[nH]c3c2)C1 [I-C10, 7-(4-(9-ethoxy-3,4-dihydropyrazino[1,2-a]indol-2(1H)-yl)butoxy)quinolin-2(1H)-one] | 49% | 828 nM | 20% | 118 nM | 120 nM |  |  |  |  |  | 
CCOc1cccc2c1cc1n2CCN(CC[C@H]2CC[C@H](NC(=O)N(C)C)CC2)C1 [I-C11, 3-(trans-4-(2-(9-ethoxy-3,4-dihydropyrazino[1,2-a]indol-2(1H)-yl)ethyl)cyclohexyl)-1,1-dimethylurea] | 45% | 128 nM | 23% | 39.8 nM |  |  |  |  |  |  | 
COc1cccc2c1nc1n2CCN(CCCCOc2ccc3ccc(=O)[nH]c3c2)C1 [I-D1, 7-(4-(9-methoxy-3,4-dihydrobenzo[4,5]imidazo[1,2-a]pyrazin-2(1H)-yl)butoxy)quinolin-2(1H)-one] | 100% | 56 nM | 77% | 267 nM | 263 nM |  |  |  |  |  | 
COc1cccc2c1nc1n2CCN(CCCCOc2ccc3c(c2)NC(=O)CC3)C1 [I-D2, 7-(4-(9-methoxy-3,4-dihydrobenzo[4,5]imidazo[1,2-a]pyrazin-2(1H)-yl)butoxy)-3,4-dihydroquinolin-2(1H)-one] | 106% | 70.1 nM | 71% | 355 nM | 324 nM |  |  |  |  |  | 69.2 nM
COc1cccc2c1nc1n2CCN(CCCOc2ccc3ccc(=O)[nH]c3c2)C1 [I-D3, 7-(3-(9-methoxy-3,4-dihydrobenzo[4,5]imidazo[1,2-a]pyrazin-2(1H)-yl)propoxy)quinolin-2(1H)-one] | 97% | 18.3 nM | 71% | 130 nM |  |  |  |  |  |  | 
COc1cccc2c1nc1n2CCN(CC[C@H]2CC[C@H](NC(=O)N(C)C)CC2)C1 [I-D6, 3-(trans-4-(2-(9-methoxy-3,4-dihydrobenzo[4,5]imidazo[1,2-a]pyrazin-2(1H)-yl)ethyl)cyclohexyl)-1,1-dimethylurea] |  |  |  |  |  |  |  |  | 16.8 nM | 12.9 nM | 

More lines, main results first:

Emax (dopamine D2 receptors [1]) | EC50 (dopamine D2 receptors [1]; [4]) | Emax (dopamine D2 receptors [2]) | EC50 (dopamine D2 receptors [2]; [5]) | EC50 (dopamine D2 receptors [2]; [6]) | SMILES | β-arrestin2 BRET pEC50 ± SEM (dopamine D2 receptors [1]) | Gαi1 BRET pEC50 ± SEM (dopamine D2 receptors [2]) | Affinity pKi ± SEM (dopamine D2 receptors [3]) | Ki (dopamine D2 receptors [3]; read-out: Affinity Ki) | Ki (dopamine D2 receptors [3]; [7]) | EC50 (dopamine D2 receptors [1]; read-out: β-arrestin2 BRET pEC50 ± SEM (converted))
103% | 52.6 nM | 68% | 0.15 nM |  | COc1cccc2c3c(oc12)CN(CCCOc1ccc2ccc(=O)[nH]c2c1)CC3 [I-A8, 7-(3-(8-methoxy-3,4-dihydrobenzofuro[2,3-c]pyridin-2(1H)-yl)propoxy)quinolin-2(1H)-one] |  |  | (6.82 ± 0.16) | 149 nM |  | 
29% | 6.7 nM | 49% | 4.37 nM | 3.67 nM | CCOc1cccc2c3c(oc12)CN(CC[C@H]1CC[C@H](NC(=O)N(C)C)CC1)CC3 [I-A17, 3-(trans-4-(2-(8-ethoxy-3,4-dihydrobenzofuro[2,3-c]pyridin-2(1H)-yl)ethyl)cyclohexyl)-1,1-dimethylurea] |  |  |  |  |  | 
76% | 6.53 nM | 35% | 43.6 nM |  | COc1cccc2c3c([nH]c12)CN(CCCOc1ccc2c(c1)NC(=O)CC2)CC3 [I-B5, 7-(3-(8-methoxy-1,3,4,9-tetrahydro-2H-pyrido[3,4-b]indol-2-yl)propoxy)-3,4-dihydroquinolin-2(1H)-one] |  |  |  |  |  | 
51% | 133 nM | 14% | 43.3 nM | 61.7 nM | COc1cccc2c3c([nH]c12)CN(CC1(O)CCCCC1)CC3 [I-B9, 1-((8-methoxy-1,3,4,9-tetrahydro-2H-pyrido[3,4-b]indol-2-yl)methyl)cyclohexan-1-ol] |  |  |  |  |  | 
92% | 2.45 nM | 49% | 276 nM |  | COc1cccc2c1cc1n2CCN(C/C=C/COc2ccc3c(c2)NC(=O)CC3)C1 [I-C6, (E)-7-((4-(9-methoxy-3,4-dihydropyrazino[1,2-a]indol-2(1H)-yl)but-2-en-1-yl)oxy)-3,4-dihydroquinolin-2(1H)-one] |  |  |  |  |  | 
52% | 54.4 nM | 66% | 23.4 nM | 38.9 nM | COc1cccc2c1cc1n2CCN(CC2(O)CCCCC2)C1 [I-C12, 1-((9-methoxy-3,4-dihydropyrazino[1,2-a]indol-2(1H)-yl)methyl)cyclohexan-1-ol] |  |  |  |  |  | 
89% | 33.6 nM | 81% | 159 nM |  | COc1cccc2c1nc1n2CCN(CCCOc2ccc3c(c2)NC(=O)CC3)C1 [I-D4, 7-(3-(9-methoxy-3,4-dihydrobenzo[4,5]imidazo[1,2-a]pyrazin-2(1H)-yl)propoxy)-3,4-dihydroquinolin-2(1H)-one] |  |  |  |  |  | 
66% | 38.8 nM | 46% | 160 nM | 162 nM | COc1cccc2c1nc1n2CCN(C/C=C/COc2ccc3c(c2)NC(=O)CC3)C1 [I-D5, (E)-7-((4-(9-methoxy-3,4-dihydrobenzo[4,5]imidazo[1,2-a]pyrazin-2(1H)-yl)but-2-en-1-yl)oxy)-3,4-dihydroquinolin-2(1H)-one] |  |  |  |  |  | 
41% | 180 nM | 67% | 79 nM | 95.5 nM | COc1cccc2c1nc1n2CCN(CC2(O)CCCCC2)C1 [I-D7, 1-((9-methoxy-3,4-dihydrobenzo[4,5]imidazo[1,2-a]pyrazin-2(1H)-yl)methyl)cyclohexan-1-ol] |  |  |  |  |  | 
